# According to US20180235917A1, “COMPOSITIONS, METHODS AND KITS FOR TREATMENT OF DIABETES AND/OR […]” (NuSirt Sciences, Inc., priority 2014, published 2018):
# Marks after values point to notes of the source that are not given here.
# How the values were obtained:
# diet-induced obese mice = assay: Diet-induced obese mice fed resveratrol, HMB, leucine: weight, adiposity, fat oxidation, insulin sensitivity (Example 1); assay type: in vivo, c57/BL6 mice; details: for Weight: 6 weeks on high-fat diet; for Glucose / Insulin: plasma
# Experimental: Six week old male c57/BL6 mice were fed a high-fat diet with fat increased to 45% of energy (Research Diets D12451) for 6 weeks to induce obesity.
# The animals were housed in polypropylene cages at a room temperature of 22±2° C. and regime of 12 h light/dark cycle. The animals had free access to water and their experimental food throughout the experiment. At the of the treatment period (6 weeks) all animals were humanely euthanized, and blood and tissues collected for further experiments.
# at the end of the obesity induction period (day 0 of treatment group) and at 2 weeks and 6 weeks of treatment, oxygen consumption and substrate utilization was measured via metabolic chambers using the Comprehensive Lab Animal Monitoring Systems (CLAMS, Columbus Instruments, Columbus, Ohio) in subgroups of each treatment group. Each animal was placed in individual cages without bedding that allow automated, non-invasive data collection. Each cage is an indirect open circuit calorimeter that provides measurement of oxygen consumption, carbon dioxide production, and concurrent measurement of food intake. All mice were acclimatized to the chambers for 24 hours prior to the experiment and maintained under the regular 12:12 light:dark cycle with free access to water and food. All experiments were started in the morning and data were collected for 24 hours. Each chamber was passed with 0.61 of air/min and was sampled for 2 min at 32-minute intervals. Exhaust O2 and CO2 content from each chamber was compared with ambient O2 and CO2 content. Food consumption was measured by electronic scales.
# at the end of the treatment period (6 weeks of treatment) subgroups of each treatment diet group (5 animals/group, 35 animals total) were used to measure whole body glucose and palmitate uptake via PET/CT Imaging. To visualize these compounds using microPET imaging, the glucose or palmitate was labeled with fluorine-18 (108 mins half-life) or carbon-11 (20 mins half-life), respectively. Each mouse was fasted for 4 hours, then anesthetized using 1-3% isoflurane delivered by nose cone or in a mouse-sized induction chamber purpose-built for small animal imaging protocols. While under anesthesia the mice were injected iv with <2 mCi of each tracer, then be left for a period of time (minutes to up ˜1 hour) to allow the uptake of the tracer. During the scan, mice were kept warm using a thermostatically controlled heated bed and were treated with ophthalmic ointment prior to scanning Following the live scan the mice were returned to their cage and revived. Mice were monitored constantly during this time. Following live data acquisition the mice were sacrificed by isoflurane overdose and organs harvested for further experiments.
# [1] = test system: adipocytes (3T3-L1) and myotubes (C2C12); assay: Fatty acid oxidation and dose-response screening, cell type not stated; assay type: cell-based, mouse; details: leucine 0.5 mM, HMB 5 μM, resveratrol 200 nM, myo-inositol 100 nM; cell type not stated
# Sirt1 = molecular target: T1, Sirt1 (Mus musculus, UniProt Q923E4); assay: Sirt1 activity (SIRT1 Fluorimetric Drug Discovery Kit) in treated cells; assay type: cell-based; details: leucine 0.5 mM, HMB 5 μM, resveratrol 200 nM, alone or combined; cell type not stated
# T1 construct: endogenous in cells; host or cells: differentiated 3T3-L1 adipocytes and C2C12 myotubes (lysates)
# T1 sequence (Q923E4 1-737): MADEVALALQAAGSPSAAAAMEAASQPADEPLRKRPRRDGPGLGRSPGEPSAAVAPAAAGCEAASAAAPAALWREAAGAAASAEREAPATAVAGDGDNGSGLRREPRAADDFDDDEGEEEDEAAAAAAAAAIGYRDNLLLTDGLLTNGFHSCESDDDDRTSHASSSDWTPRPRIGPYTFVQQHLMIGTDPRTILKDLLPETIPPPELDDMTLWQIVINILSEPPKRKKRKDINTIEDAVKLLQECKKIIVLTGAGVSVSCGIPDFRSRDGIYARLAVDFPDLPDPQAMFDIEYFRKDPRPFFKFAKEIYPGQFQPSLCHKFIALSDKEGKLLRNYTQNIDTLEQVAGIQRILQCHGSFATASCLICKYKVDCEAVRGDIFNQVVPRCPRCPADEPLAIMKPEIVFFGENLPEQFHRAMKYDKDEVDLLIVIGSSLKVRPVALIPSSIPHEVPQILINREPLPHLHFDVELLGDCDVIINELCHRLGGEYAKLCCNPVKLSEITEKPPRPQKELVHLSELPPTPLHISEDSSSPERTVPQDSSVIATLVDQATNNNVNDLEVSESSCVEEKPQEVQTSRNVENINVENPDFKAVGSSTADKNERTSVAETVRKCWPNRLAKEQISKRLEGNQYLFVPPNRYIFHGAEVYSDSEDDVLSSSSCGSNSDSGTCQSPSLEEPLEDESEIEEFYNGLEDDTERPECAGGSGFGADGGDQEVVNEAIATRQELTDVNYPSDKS
# Experimental: SIRT1 activity was measured by using the SIRT1 Fluorimetric Drug Discovery Kit (BML-AK555, ENZO Life Sciences International, Inc. PA, USA). The assay measures SIRT1 activity by the degree of deacetylation of a standardized substrate containing an acetylated lysine side chain. The substrate utilized is a peptide containing amino acids 379-382 of human p53 (Arg-His-Lys-Lys[Ac]), an established target of SIRT1 activity; SIRT1 activity is directly proportional to the degree of deacetylation of Lys-382. Samples were incubated with peptide substrate (25 μM), and NAD^+ (500 μM) in a phosphate-buffered saline solution at 37° C. on a horizontal shaker for 45 minutes. […] Following 10 minutes incubation at 37° C., fluorescence was read in a plate-reading fluorometer (Synergy HT, BioTek Instruments, Winooski, Vt.) at an excitation wavelength of 360 nm and an emission wavelength of 450 nm. […]
# Sirt1 activity was measured by using the Sirt1 Fluorimetric Drug Discovery Kit (BML-AK555, ENZO Life Sciences Inc., Farmingdale, N.Y., USA). […] Sirt1 activity was assessed by the degree of deacetylation of a standardized substrate containing an acetylated lysine side chain. […] Following 10 minutes incubation at 37° C., fluorescence was read in a plate-reading fluorimeter with excitation and emission wavelengths of 360 nm and 450 nm, respectively. […] Sirt1 activity was measured in a modified assay using 5 μl of cell lysate. […]
structure (smiles),measurement,setting,value
"Oc1ccc(/C=C/c2cc(O)cc(O)c2)cc1 [Resveratrol, 3,5,4′-Trihydroxy-trans-stilbene]",Weight,"diet-induced obese mice; High Resveratrol 225 mg/kg diet, or Low Resv 12.5 mg/kg + High HMB 10 g CaHMB/kg diet",38.7 ± 1.2^a g
same,Weight,"diet-induced obese mice; low doses: resveratrol 12.5 mg/kg diet, CaHMB 2 g/kg diet, leucine 2.42% of diet",40.8 ± 2.5^a g
same,Fat oxidation (PET palmitate uptake; Muscle SUV),diet-induced obese mice; high doses as E2,2.29 ± 0.11^b SUV
same,HOMAIR,diet-induced obese mice; high doses as E2,0.59 ± 0.26^b
same,Heat Production,diet-induced obese mice; high doses as E2,0.552 ± 0.015^b
same,Muscle Glucose Uptake (^18F-deoxyglucose SUV),diet-induced obese mice; high doses as E2,3.87 ± 0.32^a SUV
same,Visceral Adipose Volume,diet-induced obese mice; high doses as E2,6031 ± 323^a mm^3
same,Weight gain,diet-induced obese mice; high doses as E2,22.3 ± 2.4^a g
same,Fat oxidation (PET palmitate uptake; Muscle SUV),diet-induced obese mice; low doses as E1,1.51 ± 0.44^a SUV
same,HOMAIR,diet-induced obese mice; low doses as E1,2.41 ± 0.66^a
same,Heat Production,diet-induced obese mice; low doses as E1,0.517 ± 0.014^a
same,Muscle Glucose Uptake (^18F-deoxyglucose SUV),diet-induced obese mice; low doses as E1,3.63 ± 1.29^a SUV
same,Visceral Adipose Volume,diet-induced obese mice; low doses as E1,6551 ± 575^a mm^3
same,Weight gain,diet-induced obese mice; low doses as E1,20.9 ± 1.5^a g
same,Glucose,diet-induced obese mice; high doses as E2,5.14 ± 0.75^a mM
same,Insulin,diet-induced obese mice; high doses as E2,10.1 ± 2.7^a μU/mL
same,Glucose,diet-induced obese mice; low doses as E1,5.14 ± 0.85^a mM
same,Insulin,diet-induced obese mice; low doses as E1,10.4 ± 1.6^a μU/mL
same,increase in fatty acid oxidation,[1],no effect
same,stimulation of Sirt1 activity,Sirt1,no effect
